Experiment [1] has as its system primary peritoneal macrophages. Briefly: Mitochondrial ROS (MitoSOX) and potential (MitoTracker) by FACS. The experiment is classed as cell-based, C57BL/6 mice. Conditions: PA plus LPS.
The test system of experiment [2] is primary peritoneal macrophages. As to the kind of experiment: IL-1β ELISA / inflammasome activation in macrophages. The experiment is classed as cell-based, C57BL/6 mice. As for the experimental part: FIG. 5 is the results indicating the present compound MSL reduces the activation of inflammasome and enhances the function of mitochondria. FIG. 5A is the results of the experiment in which primary peritoneal macrophages were isolated and treated with palmitic acid, LPS and MSL and then the concentration of IL-beta was measured from the supernatant using ELISA. Error bars, S.D. **, P<0.01; ***, P<0.001, two-way ANOVA. […]
Screening of autophagy enhancer. […] Firefly luciferase was determined after mixing 5 μl of lysate with 25 μl of Luciferase Assay Reagent II. Renilla luciferase was then determined after further addition of 20 ul of Stop&Glo Reagent. […] Cytotoxicity was determined by the measurement of LDH release in cell culture media using the LDH kit (Roche), according to the protocol from the manufacturer. […] Imaging and image quantification. […] Formation of acidic vesicular organelles was quantitated by staining the cells with acridine orange (Invitrogen, 5 ug/ml, 10 min). […] Cells or tissues were solubilized in lysis buffer supplemented with protease and phosphatase inhibitors and protein concentration was measured by the Bradford method. Ten to 30 micrograms were loaded on 4-12% Bis-Tris gel (NUPAGE, Invitrogen) or 8-15% SDS-PAGE, transferred to PVDF membranes and analyzed by western blot using the ECL method (Pierce). […]
A general note: ELISA stands for enzyme-linked immunosorbent assay.

On to `CSc1oc(-c2ccccc2)nc1S(=O)(=O)c1ccc(F)cc1` [MSL], for which, in experiment [1], the “mitochondrial ROS content (MitoSox)” value is reported as “significantly reduced” and the “mitochondrial potential (MitoTracker Red)” value is on record as “significantly reduced”. In addition, the “release of IL-1β measured by ELISA” value in experiment [2] (PA in combination with LPS) is listed as “significantly decreased”. In addition, the “caspase-1 cleavage and IL-1 β maturation (Western blot)” value in experiment [2] (data not shown) is given as “decreased”.
